Reference: patent US9107411B2, “Indolecarboxamides and benzimidazolecarboxamides as insecticides and acaricides” (BAYER INTELLECTUAL PROPERTY GMBH, priority 2011, dated 2015)
Read-outs that look alike come from different tables or passages of the source.

Columns and labels:
logP (HPLC-MS) = assay type: physicochemical
Phaedon cochleariae = test: Phaedon test (PHAECO spray treatment); assay type: in vivo; conditions: Chinese cabbage leaf discs, after 7 days; for pest or weed control at 100 g/ha: Phaedon cochleariae, foliar, 168 h, read-out: efficacy in %
Description: Phaedon Test ([…] Spray Treatment) Solvent: 78.0 parts by weight of acetone • • 1.5 parts by weight of dimethylformamide Emulsifier: 0.5 part by weight of alkylaryl polyglycol ether To produce an appropriate active ingredient formulation, 1 part by weight of active ingredient is mixed with the stated amounts of solvent and emulsifier, and the concentrate is diluted with emulsifier-containing water to the desired concentration. Leaf discs of Chinese cabbage (Brassica pekinensis) are sprayed with an active ingredient formulation of the desired concentration and, after drying, populated with larvae of the mustard beetle (Phaedon cochleariae). After 7 days, the efficacy in % is determined. 100% means that all of the beetle larvae have been killed; 0% means that none of the beetle larvae have been killed.

Tetranychus urticae = test: Tetranychus test, OP-resistant (TETRUR spray treatment); assay type: in vivo; conditions: application rate 100 g/ha; bean leaf discs; after 6 days
Description: Tetranychus Test, OP-Resistant (TETRUR Spray Treatment)
Solvent: 78.0 parts by weight of acetone • • 1.5 parts by weight of dimethylformamide
Emulgator: 0.5 part by weight of alkylaryl polyglycol ether
To produce an appropriate active ingredient formulation, 1 part by weight of active ingredient is mixed with the stated amounts of solvent and emulsifier, and the concentrate is diluted with emulsifier-containing water to the desired concentration.
Discs of bean leaves (Phaseolus vulgaris) infested by all stages of the red spider mite (Tetranychus urticae) are sprayed with an active ingredient formulation of the desired concentration.
After 6 days, the efficacy in % is determined. 100% means that all of the spider mites have been killed; 0% means that none of the spider mites have been killed.

Spodoptera frugiperda = Spodoptera frugiperda test (SPODFR spray treatment); assay type: in vivo; conditions: maize leaf discs, after 7 days
Description: Spodoptera frugiperda Test (SPODFR Spray Treatment) Solvent: 78.0 parts by weight of acetone • • 1.5 parts by weight of dimethylformamide To produce an appropriate active ingredient formulation, 1 part by weight of active ingredient is mixed with the stated amounts of solvent and emulsifier, and the concentrate is diluted with emulsifier-containing water to the desired concentration. Leaf discs of maize (Zea mays) are sprayed with an active ingredient formulation of the desired concentration and, after drying, populated with caterpillars of the armyworm (Spodoptera frugiperda). After 7 days, the efficacy in % is determined 100% means that all of the caterpillars have been killed; 0% means that none of the caterpillars have been killed.

[1] = HPLC, reversed-phase column (C18), acidic range pH 2.7, acetonitrile (0.1% formic acid)/water gradient, 43° C., calibration with unbranched alkan-2-ones
[2] = HPLC, reversed-phase column (C18), 43° C., acidic range pH 2.7, EEC directive 79/831 Annex V.A8, two values = both regioisomers (G = N)
[3] = HPLC, reversed-phase column (C18), acidic range pH 2.7, acetonitrile (0.1% formic acid)/water gradient, 43° C., calibration with unbranched alkan-2-ones, read-out: log p

Row | Compound | log p (logP (HPLC-MS); [1]) | efficacy in % (Phaedon cochleariae; application rate 100 g/ha) [%] | log p (logP (HPLC-MS); [2]) | efficacy in % (Spodoptera frugiperda; application rate 100 g/ha) [%] | also measured
1 | CCn1c(C(=O)NC(c2cccc(C(F)(F)F)c2)C(F)(F)F)cc2cc(C(=O)NC(C#N)C(C)C)c(Cl)cc21 (stereo not shown) [Compound 270] | 4.37 | 100 | – | – | –
2 | CCn1c(C(=O)NC(c2cccc(C(F)(F)F)c2)C(F)(F)F)cc2cc(C(=O)NC(C#N)(CC)CC)c(Cl)cc21 (stereo not shown) [Compound 264] | 4.41 | 100 | – | – | –
3 | N#CC1(NC(=O)c2cc3cc(C(=O)NC(c4cccc(C(F)(F)F)c4)C(F)(F)F)n(COCc4ccccc4)c3cc2Cl)CC1 (stereo not shown) [Compound 286] | – | 100 | 4.17 | – | efficacy in % (Tetranychus urticae): 100%
4 | CCn1c(C(=O)NC(c2ccc(F)c(C(F)(F)F)c2)C(F)(F)F)nc2cc(C(=O)NC3CC3)c(Br)cc21 (stereo not shown) [Compound 332] | – | – | 3.76 | – | –
5 | CCn1c(C(=O)NC(c2cccc(C(F)(F)F)c2)C(F)(F)F)cc2cc(CNC(=O)C3CC3)c(C(F)(F)F)cc21 (stereo not shown) [Compound 23] | 4.37 | 100 | – | – | –
6 | CCOC(=O)C1(NC(=O)c2cc3cc(C(=O)NC(c4cccc(C(F)(F)F)c4)C(F)(F)F)n(CC)c3cc2Cl)CC1 (stereo not shown) [Compound 34] | 3.99 | 100 | – | 83 | –
7 | CCn1c(C(=O)NC(c2cccc(C(F)(F)F)c2)C(F)(F)F)cc2cc(C(=O)NC3(C#N)CC3)c(C(C)C)cc21 (stereo not shown) [Compound 319] | – | 100 | 4.08 | 100 | –
8 | COC(=O)Cn1c(C(=O)NC(c2cccc(C(F)(F)F)c2)C(F)(F)F)cc2cc(C(=O)NC3(C#N)CC3)c(Cl)cc21 (stereo not shown) [Compound 326] | – | 100 | 3.36 | – | –
9 | Cn1c(C(=O)NC(c2cccc(C(F)(F)F)c2)C(F)(F)F)cc2cc(C(=O)NC3(C#N)CC3)c(Cl)cc21 (stereo not shown) [Compound 44] | 3.55 | 100 | – | 100 | –
10 | CCn1c(C(=O)NC(c2cccc(C(F)(F)F)c2)C(F)(F)F)cc2cc(C(=O)NC3(C4CC4)CC3)c(Cl)cc21 (stereo not shown) [Compound 29] | 4.45 | 100 | – | 83 | –
11 | C#CC1(NC(=O)c2cc3cc(C(=O)NC(c4cccc(C(F)(F)F)c4)C(F)(F)F)n(CC)c3cc2Cl)CCC1 (stereo not shown) [Compound 33] | 4.20 | 100 | – | – | –
12 | CCn1c(C(=O)NC(c2cccc(C(F)(F)F)c2)C(F)(F)F)cc2cc(C(=O)NC3(C)CC3C)c(Cl)cc21 (stereo not shown) [Compound 266] | 4.41 | 100 | – | – | –
13 | CCn1c(C(=O)NC(c2cc(F)cc(C(F)(F)F)c2)C(F)(F)F)cc2cc(C(=O)NC3(C#N)CC3)c(C)cc21 (stereo not shown) [Compound 331] | – | – | 4.02 | – | –
14 | CCC(=O)NCc1cc2cc(C(=O)NC(c3cccc(C(F)(F)F)c3)C(F)(F)F)n(CC)c2cc1Cl (stereo not shown) [Compound 25] | 4.06 | 100 | – | 100 | –
15 | Cc1cc2c(cc1C(=O)NC1(C#N)CC1)cc(C(=O)NC(c1cccc(C(F)(F)F)c1)C(F)(F)F)n2C (stereo not shown) [Compound 196] | 3.49 | 100 | – | 100 | –
16 | CCOC1(NC(=O)c2cc3cc(C(=O)NC(c4cccc(C(F)(F)F)c4)C(F)(F)F)n(CC)c3cc2Cl)CC1 (stereo not shown) [Compound 31] | 4.19 | 100 | – | 100 | –
17 | C=Cn1c(C(=O)NC(c2cccc(C(F)(F)F)c2)C(F)(F)F)cc2cc(C(=O)NC3(C#N)CC3)ccc21 (stereo not shown) [Compound 324] | – | – | 3.48 | – | –
18 | Cn1c(C(=O)NC(c2cccc(C(F)(F)F)c2)C(F)(F)F)nc2cc(C(=O)NC3CC3)c(Cl)cc21 (stereo not shown) [Compound 1] | 3.4 | – | – | – | efficacy in % (Spodoptera frugiperda; application rate 500 g/ha): 100%; efficacy in % (Phaedon cochleariae; application rate 500 g/ha): 100%
19 | CCn1c(C(=O)NC(c2cccc(C(F)(F)F)c2)C(F)(F)F)c(Cl)c2cc(C(=O)NC3(C#N)CC3)c(Cl)cc21 (stereo not shown) [Compound 271, 3,6-dichloro-N^5-(1-cyanocyclopropyl)-1-ethyl-N^2-{2,2,2-trifluoro-1-[3-(trifluoromethyl)phenyl]ethyl}-1H-indole-2,5-dicarboxamide] | – | – | – | – | chromatographic logP (logP (HPLC-MS); [3]): 3.95; chromatographic logP (logP (HPLC-MS); HPLC-MS): 3.95; pest or weed control at 100 g/ha (Phaedon cochleariae; application rate 100 g/ha): 100%

Row | Compound | log p (logP (HPLC-MS); [1]) | efficacy in % (Phaedon cochleariae; application rate 100 g/ha) [%] | log p (logP (HPLC-MS); [2]) | efficacy in % (Spodoptera frugiperda; application rate 100 g/ha) [%] | also measured
20 | C=CCN(C(=O)c1cc2nc(C(=O)NC(c3cccc(C(F)(F)F)c3)C(F)(F)F)n(CC=C)c2cc1Cl)C1CC1 (stereo not shown) [Compound 309] | – | – | 4.74 | – | efficacy in % (Spodoptera frugiperda; application rate 500 g/ha): 100%; efficacy in % (Phaedon cochleariae; application rate 500 g/ha): 83%
21 | CCn1c(C(=O)NC(c2cccc(C(F)(F)F)c2)C(F)(F)F)cc2cc(C(=O)NC3(CC)CC3)c(Cl)cc21 (stereo not shown) [Compound 30] | 4.45 | 100 | – | 83 | –
22 | CCn1c(C(=O)NC(c2cccc(C(F)(F)F)c2)C(F)(F)F)cc2cc(C(=O)NCC#N)c(Cl)cc21 (stereo not shown) [Compound 21] | 3.64 | 100 | – | – | –
23 | CCn1c(C(=O)NC(c2cccc(C(F)(F)F)c2)C(F)(F)F)cc2cc(C(=O)NC(C#N)(COC)COC)c(Cl)cc21 (stereo not shown) [Compound 325] | – | 100 | 4.16 | – | –
24 | CCNC(=O)c1cc2cc(C(=O)NC(c3ccc(F)c(C(F)(F)F)c3)C(F)(F)F)n(CC)c2cc1Cl (stereo not shown) [Compound 17] | 3.91 | 100 | – | 100 | –
25 | O=C(NC1CC1)c1cc2nc(C(=O)NC(c3cccc(C(F)(F)F)c3)C(F)(F)F)n(CC3CC3)c2cc1Cl (stereo not shown) [Compound 322] | – | 100 | – | 100 | –
26 | CCn1c(C(=O)NC(c2cccc(C(F)(F)F)c2)C(F)(F)F)cc2cc(C(=O)NC(C)CC#N)c(Cl)cc21 (stereo not shown) [Compound 269] | 3.78 | 100 | – | – | –
27 | CCn1c(C(=O)NC(c2cccc(C(F)(F)F)c2)C(F)(F)F)cc2cc(C(=O)NC(C#N)c3ccccc3)c(Cl)cc21 (stereo not shown) [Compound 318] | – | 100 | 4.37 | – | –
28 | CCn1c(C(=O)NC(c2cccc(C(F)(F)F)c2)C(F)(F)F)cc2cc(CNC(=O)C3CC3)c(Cl)cc21 (stereo not shown) [Compound 24] | 4.19 | 100 | – | 100 | –
29 | CC(C)Cn1c(C(=O)NC(c2cccc(C(F)(F)F)c2)C(F)(F)F)cc2cc(C(=O)NC3(C#N)CC3)c(Cl)cc21 (stereo not shown) [Compound 299] | – | 100 | 4.13 | 100 | –
30 | CCn1c(C(=O)NC(c2ccc(F)c(C(F)(F)F)c2)C(F)(F)F)cc2cc(C(=O)NC(CF)CF)c(C)cc21 (stereo not shown) [Compound 306] | – | 100 | 4.03 | 83 | –
31 | CCn1c(C(=O)NC(c2ccc(F)c(F)c2)C(F)(F)F)cc2cc(C(=O)NC(C)C[S+](C)[O-])c(C)cc21 (stereo not shown) [Compound 321] | – | – | 2.76 | – | –
32 | CCn1c(C(=O)NC(c2ccc(F)c(F)c2)C(F)(F)F)cc2cc(C(=O)NC3CC3)c(Cl)cc21 (stereo not shown) [Compound 329] | – | – | 3.52 | – | –
33 | CCn1c(C(=O)NC(c2ccc3c(c2)OC(F)(F)O3)C(F)(F)F)cc2cc(C(=O)NC3CC3)c(C)cc21 (stereo not shown) [Compound 307] | – | 100 | 3.81 | 100 | –
34 | Cn1c(C(=O)NC(c2cccc(Cl)c2)C(F)(F)F)cc2cc(C(=O)NC3CC3)c(Cl)cc21 (stereo not shown) [Compound 45] | 3.33 | 100 | – | 100 | –
35 | C#CCn1c(C(=O)NC(c2cccc(C(F)(F)F)c2)C(F)(F)F)nc2cc(C(=O)NC3CC3)c(Cl)cc21 (stereo not shown) [Compound 91] | 3.55 | 100 | – | 100 | –
36 | CCn1c(C(=O)NC(c2cc(Cl)c(F)c(Cl)c2)C(F)(F)F)cc2cc(C(=O)NC3CC3)c(Cl)cc21 (stereo not shown) [Compound 327] | – | – | 4.29 | – | –
37 | CCn1c(C(=O)NC(c2cccc(C(F)(F)F)c2)C(F)(F)F)cc2cc(C(=O)NC3(C(F)(F)F)CC3)c(Cl)cc21 (stereo not shown) [Compound 267] | 4.30 | 100 | – | 100 | –
38 | CCn1c(C(=O)NC(c2cccc(C(F)(F)F)c2)C(F)(F)F)cc2cc(CNC(C)=O)c(Cl)cc21 (stereo not shown) [Compound 26, 5-(acetamidomethyl)-6-chloro-1-ethyl-N-{2,2,2-trifluoro-1-[3-(trifluoromethyl)phenyl]ethyl}-1H-indole-2-carboxamide] | – | – | – | – | chromatographic logP (logP (HPLC-MS); [3]): 3.77; chromatographic logP (logP (HPLC-MS); HPLC-MS): 3.77; pest or weed control at 100 g/ha (Phaedon cochleariae; application rate 100 g/ha): 100%
